Measurements published in ChEMBL document CHEMBL3217421, “Truncated militarinone fragments identified by total chemical synthesis induce neurite outgrowth” (Medchemcomm, 2013).
The source made the active and inactive calls. No cut-off for these calls is given here.

What was measured:
Assay type in all cases: functional, cell-based
PC-12 [1] = assay: Neuritogenic activity in rat PC12 cells assessed as induction of neurite outgrowth at 40 uM after 3 days using Giemsa staining by microscopic analysis
PC-12 [2] = assay: Neuritogenic activity in rat PC12 cells assessed as induction of neurite outgrowth at 20 uM after 3 days using Giemsa staining by microscopic analysis
PC-12 [3] = assay: Neuritogenic activity in rat PC12 cells assessed as induction of neurite outgrowth at 20 uM after 3 days using Giemsa staining by microscopic analysis in presence of ERK1/2 inhibitor PD98059
PC-12 [4] = assay: Neuritogenic activity in rat PC12 cells assessed as induction of neurite outgrowth at 2 uM after 3 days using Giemsa staining by microscopic analysis
PC-12 [5] = assay: Neuritogenic activity in rat PC12 cells assessed as induction of neurite outgrowth at 500 nM after 3 days using Giemsa staining by microscopic analysis
PC-12 [6] = assay: Neuritogenic activity in rat PC12 cells assessed as induction of neurite outgrowth at 1 uM after 3 days using Giemsa staining by microscopic analysis

Row | SMILES | Activity (PC-12 [1]) | Activity (PC-12 [2]) | other results
1 | CCOC(=O)c1c(OC)c(-c2cccnc2)c[nH]c1=O | inactive |  | 
2 | CCOC(=O)c1c(OC)c(-c2ccc(O)cc2)cn(C)c1=O |  | Active | 
3 | CCOC(=O)c1c(OC)c(-c2ccc(OC)cc2)c[nH]c1=O |  | inactive | 
4 | CCOC(=O)c1c(OC)c(-c2ccccc2)c[nH]c1=O | inactive |  | 
5 | CCOC(=O)c1c(O)c(-c2ccc(O)cc2)c[nH]c1=O |  | Active | 
6 | CCOC(=O)c1c(OC)c(-c2ccc(N)cc2)c[nH]c1=O | inactive |  | 
7 | CCOC(=O)c1c(OC)c(-c2ccc(F)cc2)c[nH]c1=O | inactive |  | 
8 | CCOC(=O)c1c(OC)c(-c2ccncc2)c[nH]c1=O | inactive |  | 
9 | CCOC(=O)c1c(OC)c(-c2ccc(OC)cc2)cn(C)c1=O |  | inactive | 
10 | CCOC(=O)c1c(OC)c(-c2ccc(O)cc2)c[nH]c1=O |  | Active | 
11 | CCOC(=O)c1c(OC)c(-c2ccc(O)c(OC)c2)c[nH]c1=O |  | Active | Activity (PC-12 [3]): inactive; Activity (PC-12 [4]): Active; Activity (PC-12 [5]): inactive; Activity (PC-12 [6]): Active
12 | CCOC(=O)c1c(OC)c(-c2ccc(C(C)(C)C)cc2)c[nH]c1=O | inactive |  | 
13 | COc1cc(-c2cccnc2)ccc1O |  | inactive | 
14 | CCOC(=O)c1c(OC)c(-c2ccc(NC(=O)OC(C)(C)C)cc2)c[nH]c1=O | inactive |  | 
